Measured values: PMC3582025 (European journal of pharmacology, 2012)
Structures can show the parent of a compound that is named as a salt.

Biological target: 5-HT2B serotonin receptors (Homo sapiens, UniProt P41595)
Test: Radioligand binding assay
Details: not given

Sequence of 5-HT2B serotonin receptors (P41595 whole entry): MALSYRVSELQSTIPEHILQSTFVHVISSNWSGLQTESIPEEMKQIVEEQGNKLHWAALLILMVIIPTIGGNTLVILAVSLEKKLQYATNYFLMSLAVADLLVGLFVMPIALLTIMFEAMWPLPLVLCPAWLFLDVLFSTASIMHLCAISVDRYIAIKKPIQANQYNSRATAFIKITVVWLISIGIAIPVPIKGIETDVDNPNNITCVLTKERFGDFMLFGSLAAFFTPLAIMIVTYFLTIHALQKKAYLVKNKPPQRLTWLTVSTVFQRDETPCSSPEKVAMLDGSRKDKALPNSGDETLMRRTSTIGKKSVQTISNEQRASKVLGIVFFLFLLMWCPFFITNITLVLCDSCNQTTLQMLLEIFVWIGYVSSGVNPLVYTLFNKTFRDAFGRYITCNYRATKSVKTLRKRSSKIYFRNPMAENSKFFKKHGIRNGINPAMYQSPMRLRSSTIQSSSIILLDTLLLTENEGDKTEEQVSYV

| Structure (SMILES) | 5-HT2B receptor affinity Ki |
| --- | --- |
| Cl.NC1CCc2cc3c(cc2C1)OCO3 (centres unmarked) [Methylenedioxy-aminotetralin, 5,6,7,8-tetrahydrobenzo[f][1,3]benzodioxol-6-amine hydrochloride] | submicromolar |
| CNC(C)C(=O)c1ccc(C)cc1.Cl (centres unmarked) [Mephedrone, 2-methylamino-1-(4-methylphenyl)propan-1-one hydrochloride] | submicromolar |

Biological target: norepinephrine transporter (NET) (Homo sapiens, UniProt P23975)
Test: cell-based
Assay type: cell-based
Details: NET Ki

Sequence of norepinephrine transporter (NET) (P23975 whole entry): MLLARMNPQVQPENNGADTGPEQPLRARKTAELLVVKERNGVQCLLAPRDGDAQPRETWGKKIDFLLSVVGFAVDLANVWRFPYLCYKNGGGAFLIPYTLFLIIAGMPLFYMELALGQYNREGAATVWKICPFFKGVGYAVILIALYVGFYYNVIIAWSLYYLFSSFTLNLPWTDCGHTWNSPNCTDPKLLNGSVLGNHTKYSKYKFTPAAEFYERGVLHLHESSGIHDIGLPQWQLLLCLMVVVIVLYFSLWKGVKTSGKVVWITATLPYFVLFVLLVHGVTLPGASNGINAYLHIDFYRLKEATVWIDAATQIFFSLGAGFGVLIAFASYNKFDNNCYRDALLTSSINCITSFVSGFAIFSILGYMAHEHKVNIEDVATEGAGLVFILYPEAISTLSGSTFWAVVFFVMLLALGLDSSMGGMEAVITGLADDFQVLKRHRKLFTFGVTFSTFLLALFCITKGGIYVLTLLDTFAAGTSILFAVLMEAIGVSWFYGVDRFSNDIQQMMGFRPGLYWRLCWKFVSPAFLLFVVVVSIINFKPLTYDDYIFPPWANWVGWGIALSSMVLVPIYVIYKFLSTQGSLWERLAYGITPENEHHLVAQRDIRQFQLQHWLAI

| Structure (SMILES) | Ki [nM] |
| --- | --- |
| CN[C@H](C)Cc1ccc2c(c1)OCO2 [(−)-MDMA, 3,4-methylenedioxymethamphetamine, reference compound] | 704 |
| CN[C@@H](C)Cc1ccc2c(c1)OCO2 [(+)-MDMA, 3,4-methylenedioxymethamphetamine, reference compound] | 398 |

Same assay, conditions: NET Ki, inhibition of transporter uptake activity

| Structure (SMILES) | Ki [nM] |
| --- | --- |
| CCC(C)CC(C)N (centres unmarked) [Dimethylamylamine, 4-methylhexan-2-amine hydrochloride] | 649 |
| Cl.NC1CCc2cc3c(cc2C1)OCO3 (centres unmarked) [Methylenedioxy-aminotetralin, 5,6,7,8-tetrahydrobenzo[f][1,3]benzodioxol-6-amine hydrochloride] | 894 |
| CNC(C)C(=O)c1ccc(C)cc1.Cl (centres unmarked) [Mephedrone, 2-methylamino-1-(4-methylphenyl)propan-1-one hydrochloride] | 511 |

Same assay, conditions: NET pKi (mean +/- S.E.M)

| Structure (SMILES) | Ki [nM] |
| --- | --- |
| CN[C@H](C)Cc1ccc2c(c1)OCO2 [(−)-MDMA, 3,4-methylenedioxymethamphetamine, reference compound] | 3160 |
| CN[C@@H](C)Cc1ccc2c(c1)OCO2 [(+)-MDMA, 3,4-methylenedioxymethamphetamine, reference compound] | 2000 |

Same assay, conditions: NET pKi (mean +/- S.E.M), inhibition of transporter uptake activity, N=3

| Structure (SMILES) | Ki [nM] |
| --- | --- |
| CCC(C)CC(C)N (centres unmarked) [Dimethylamylamine, 4-methylhexan-2-amine hydrochloride] | 1700 |
| Cl.NC1CCc2cc3c(cc2C1)OCO3 (centres unmarked) [Methylenedioxy-aminotetralin, 5,6,7,8-tetrahydrobenzo[f][1,3]benzodioxol-6-amine hydrochloride] | 2290 |

System: dopamine uptake in rat brain synaptosomes
Test: not given
Details: ref Martinez-Clemente et al (2011); cited from earlier work

| Structure (SMILES) | concentration inhibiting dopamine uptake |
| --- | --- |
| CNC(C)C(=O)c1ccc(C)cc1.Cl (centres unmarked) [Mephedrone, 2-methylamino-1-(4-methylphenyl)propan-1-one hydrochloride] | submicromolar |

System: serotonin uptake in rat brain synaptosomes
Test: not given
Details: ref Martinez-Clemente et al (2011); cited from earlier work

| Structure (SMILES) | concentration inhibiting serotonin uptake |
| --- | --- |
| CNC(C)C(=O)c1ccc(C)cc1.Cl (centres unmarked) [Mephedrone, 2-methylamino-1-(4-methylphenyl)propan-1-one hydrochloride] | submicromolar |

Biological target: dopamine transporter (DAT) (Homo sapiens, UniProt Q01959)
Test: cell-based
Details: DAT Ki

Sequence of dopamine transporter (DAT) (Q01959 whole entry): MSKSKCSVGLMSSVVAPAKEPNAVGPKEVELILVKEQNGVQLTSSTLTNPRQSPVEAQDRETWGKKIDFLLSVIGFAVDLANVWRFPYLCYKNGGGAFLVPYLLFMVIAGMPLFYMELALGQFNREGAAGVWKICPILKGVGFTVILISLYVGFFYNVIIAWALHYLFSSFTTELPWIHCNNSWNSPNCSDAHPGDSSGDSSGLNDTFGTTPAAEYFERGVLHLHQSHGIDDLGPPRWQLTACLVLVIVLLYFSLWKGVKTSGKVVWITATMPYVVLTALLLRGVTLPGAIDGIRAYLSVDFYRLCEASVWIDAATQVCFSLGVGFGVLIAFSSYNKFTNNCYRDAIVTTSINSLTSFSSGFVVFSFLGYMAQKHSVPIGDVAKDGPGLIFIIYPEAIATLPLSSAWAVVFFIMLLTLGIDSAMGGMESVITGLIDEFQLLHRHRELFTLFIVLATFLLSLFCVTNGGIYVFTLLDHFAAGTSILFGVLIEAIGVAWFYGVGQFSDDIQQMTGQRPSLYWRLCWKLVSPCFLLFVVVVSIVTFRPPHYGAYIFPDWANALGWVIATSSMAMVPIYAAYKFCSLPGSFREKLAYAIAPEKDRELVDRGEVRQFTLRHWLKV

| Structure (SMILES) | Ki [nM] |
| --- | --- |
| CN[C@H](C)Cc1ccc2c(c1)OCO2 [(−)-MDMA, 3,4-methylenedioxymethamphetamine, reference compound] | 2420 |
| CN[C@@H](C)Cc1ccc2c(c1)OCO2 [(+)-MDMA, 3,4-methylenedioxymethamphetamine, reference compound] | 897 |

Same assay, conditions: DAT Ki, inhibition of transporter uptake activity

| Structure (SMILES) | Ki [nM] |
| --- | --- |
| CCC(C)CC(C)N (centres unmarked) [Dimethylamylamine, 4-methylhexan-2-amine hydrochloride] | > 10000 |
| Cl.NC1CCc2cc3c(cc2C1)OCO3 (centres unmarked) [Methylenedioxy-aminotetralin, 5,6,7,8-tetrahydrobenzo[f][1,3]benzodioxol-6-amine hydrochloride] | 4070 |
| CNC(C)C(=O)c1ccc(C)cc1.Cl (centres unmarked) [Mephedrone, 2-methylamino-1-(4-methylphenyl)propan-1-one hydrochloride] | 543 |

Same assay, conditions: DAT pKi (mean +/- S.E.M)

| Structure (SMILES) | Ki [nM] |
| --- | --- |
| CN[C@H](C)Cc1ccc2c(c1)OCO2 [(−)-MDMA, 3,4-methylenedioxymethamphetamine, reference compound] | 6170 |
| CN[C@@H](C)Cc1ccc2c(c1)OCO2 [(+)-MDMA, 3,4-methylenedioxymethamphetamine, reference compound] | 2400 |

Same assay, conditions: DAT pKi (mean +/- S.E.M), inhibition of transporter uptake activity, N=3

| Structure (SMILES) | Ki [nM] |
| --- | --- |
| CCC(C)CC(C)N (centres unmarked) [Dimethylamylamine, 4-methylhexan-2-amine hydrochloride] | 18200 |
| Cl.NC1CCc2cc3c(cc2C1)OCO3 (centres unmarked) [Methylenedioxy-aminotetralin, 5,6,7,8-tetrahydrobenzo[f][1,3]benzodioxol-6-amine hydrochloride] | 6310 |
| CNC(C)C(=O)c1ccc(C)cc1.Cl (centres unmarked) [Mephedrone, 2-methylamino-1-(4-methylphenyl)propan-1-one hydrochloride] | 832 |

Biological target: serotonin transporter (SERT) (Homo sapiens, UniProt P31645)
Test: cell-based
Assay type: cell-based
Details: SERT Ki

Sequence of serotonin transporter (SERT) (P31645 whole entry): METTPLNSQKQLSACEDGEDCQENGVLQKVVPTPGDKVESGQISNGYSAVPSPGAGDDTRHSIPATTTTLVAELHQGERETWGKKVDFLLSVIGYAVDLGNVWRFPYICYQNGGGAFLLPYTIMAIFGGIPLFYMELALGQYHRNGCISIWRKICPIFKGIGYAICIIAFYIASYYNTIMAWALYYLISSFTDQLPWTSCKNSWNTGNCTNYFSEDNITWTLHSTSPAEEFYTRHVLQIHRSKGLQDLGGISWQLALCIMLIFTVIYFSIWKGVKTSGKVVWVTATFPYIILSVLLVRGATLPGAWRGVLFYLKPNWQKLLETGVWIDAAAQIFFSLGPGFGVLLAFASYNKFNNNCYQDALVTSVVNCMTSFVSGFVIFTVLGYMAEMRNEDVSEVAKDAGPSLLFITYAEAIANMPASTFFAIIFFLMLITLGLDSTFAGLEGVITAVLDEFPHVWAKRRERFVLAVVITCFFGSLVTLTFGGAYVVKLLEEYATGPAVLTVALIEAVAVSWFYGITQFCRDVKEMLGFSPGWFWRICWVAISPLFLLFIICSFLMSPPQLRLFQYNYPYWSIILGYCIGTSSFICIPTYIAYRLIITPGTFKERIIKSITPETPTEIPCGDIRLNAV

| Structure (SMILES) | Ki [nM] |
| --- | --- |
| CN[C@H](C)Cc1ccc2c(c1)OCO2 [(−)-MDMA, 3,4-methylenedioxymethamphetamine, reference compound] | 2310 |
| CN[C@@H](C)Cc1ccc2c(c1)OCO2 [(+)-MDMA, 3,4-methylenedioxymethamphetamine, reference compound] | 948 |

Same assay, conditions: SERT Ki, inhibition of transporter uptake activity

| Structure (SMILES) | Ki [nM] |
| --- | --- |
| CCC(C)CC(C)N (centres unmarked) [Dimethylamylamine, 4-methylhexan-2-amine hydrochloride] | > 10000 |
| Cl.NC1CCc2cc3c(cc2C1)OCO3 (centres unmarked) [Methylenedioxy-aminotetralin, 5,6,7,8-tetrahydrobenzo[f][1,3]benzodioxol-6-amine hydrochloride] | 1100 |
| CNC(C)C(=O)c1ccc(C)cc1.Cl (centres unmarked) [Mephedrone, 2-methylamino-1-(4-methylphenyl)propan-1-one hydrochloride] | 4940 |

Same assay, conditions: SERT pKi (mean +/- S.E.M)

| Structure (SMILES) | Ki [nM] |
| --- | --- |
| CN[C@@H](C)Cc1ccc2c(c1)OCO2 [(+)-MDMA, 3,4-methylenedioxymethamphetamine, reference compound] | 2750 |

Same assay, conditions: SERT pKi (mean +/- S.E.M), inhibition of transporter uptake activity, N=3

| Structure (SMILES) | Ki [nM] |
| --- | --- |
| CCC(C)CC(C)N (centres unmarked) [Dimethylamylamine, 4-methylhexan-2-amine hydrochloride] | 178000 |
| Cl.NC1CCc2cc3c(cc2C1)OCO3 (centres unmarked) [Methylenedioxy-aminotetralin, 5,6,7,8-tetrahydrobenzo[f][1,3]benzodioxol-6-amine hydrochloride] | 2240 |
| CNC(C)C(=O)c1ccc(C)cc1.Cl (centres unmarked) [Mephedrone, 2-methylamino-1-(4-methylphenyl)propan-1-one hydrochloride] | 10200 |
